Values of other authors, collected in patent US20170008834A1, “FUMARATE COMPOUNDS, PHARMACEUTICAL COMPOSITIONS THEREOF, AND METHODS OF USE” (priority 2015, published 2017).

SMILES: COC(=O)/C=C/C(=O)OC [DMF, dimethylfumarate]
- aqueous solubility: poor
